{"source": "patent US20260218132A1", "about": "“METHODS AND MATERIALS FOR GENERATING STEM CELL-DERIVED ENDOCRINE CELL TYPES” (Mayo Foundation for Medical Education and Research, priority 2023, published 2026)", "key": {"delta progenitor cells [1]": {"test_system": "delta progenitor cells", "experiment": "Differentiation of delta progenitor cells to pre-delta cells (stage 5), flow cytometry", "format": "cell-based, human", "protocol": "(§1) The differentiation was carried out in six stages. The generation of PP1 cells from HUES8 cells was carried out using prior protocols with modifications (see, e.g., Pagliuca et al., Cell, 159:428-439 (2014); and Peterson et al., Nat. Commun., 11:Article No. 2241 (14 pages) (2020)); and the delta cell differentiation was further carried out using PP1 cells. The media changes for differentiation were as follows:\n(§2) The cell clusters collected during the course of differentiation at different stages were dissociated into single cell suspension by treating with TrypLE Express at 37° C. for 10 minutes after washing twice with phosphate buffered saline (PBS). The enzyme activity was quenched by adding equal volume of S3 media to prevent further degradation, and dispersed single cells were washed with PBS, fixed in 4% paraformaldehyde (PFA) for 20 minutes and subsequently stored at 4° C. until further use. On the day of staining, the cells were passed through 40 μm filter and washed twice with PBS before permeabilizing in block solution (PBS+0.1% Triton X-100+5% donkey serum; PBST). After 40 minutes of blocking, the cells were incubated with primary antibodies in block solution for 1 hour at room temperature (RT), washed twice with PBST, and then incubated with appropriate secondary antibodies in block solution for 1 hour at RT. Finally, cells were washed twice with PBST and resuspended in PBS at a concentration of 1×10^6 cells/mL. The stained cells were acquired in Attune flow cytometer and were analyzed using FlowJo v10 software. The Pdx1 (R&D Systems, AF2419) antibody was used at 1:250, Nkx6.1 (Iowa Hybridoma Bank, F55A12) at 1:100, insulin (Iowa Hybridoma Bank, GN-ID4) at 1:250, glucagon (LSBio, LS-B10219) at 1:25,000, and somatostatin (Santa Cruz Biotechnologies, SC-25262) at a dilution of 1:8000. The secondary antibodies are either donkey-anti-goat-Alexa Fluor 488 (Invitrogen, A-11055, 1:1000), donkey-anti-rabbit-Alexa Fluor 488 (Invitrogen, A-21206, 1:1000), donkey-anti-rat-Alexa Fluor 594 (Invitrogen, A-21209, 1:1000), or donkey-anti-mouse-Alexa Fluor 647 (Invitrogen, A-31571 1:1000).\n(§3) Compounds that increased the percentage of Pre-Delta (PD) cells (positive for somatostatin (SST) while negative for both insulin (INS) and glucagon (GCG)) and reduced the percentage of polyhormonal cells were considered as hits. […] The library was screened at 20 μM, 2 μM, and 0.2 μM final concentrations (FIG. 22)."}, "delta progenitor cells [2]": {"test_system": "delta progenitor cells", "experiment": "High-content small molecule screen on delta progenitor cells (step 5)", "format": "cell-based, human", "conditions": "library screened at 20 μM, 2 μM and 0.2 μM", "protocol": "as §3"}, "PDX1^+/NKX6.1^− PP cells": {"test_system": "PDX1^+/NKX6.1^− PP cells", "experiment": "Differentiation of PP cells to delta progenitor cells (stage 4), hormone expression by flow cytometry", "format": "cell-based, human", "conditions": "stage 3 cells treated independently or in combination for 5 days", "protocol": "After 72 hours of culture in mTeSR, the clusters of HUES8 cells were allowed to settle at the bottom of the spinner flask, and spent media was replaced with stage specific differentiation media containing specific growth factors and small molecules.\nas §1\n(§4) The cell clusters collected during the course of differentiation at different stages were dissociated into single cell suspension by treating with TrypLE Express at 37° C. for 10 minutes after washing twice with phosphate buffered saline (PBS). The enzyme activity was quenched by adding equal volume of S3 media to prevent further degradation, and dispersed single cells were washed with PBS, fixed in 4% paraformaldehyde (PFA) for 20 minutes and subsequently stored at 4° C. until further use. […] The stained cells were acquired in Attune flow cytometer and were analyzed using FlowJo v10 software. […]"}, "PP cells": {"test_system": "PP cells", "experiment": "PP cells treated with FGF receptor inhibitors along with RA, somatostatin expressing cells", "format": "cell-based, human", "conditions": "control having only RA, six-well plates, 5 days", "protocol": "as §4, with “use. On the day of staining, the cells were passed through 40 μm filter and washed twice with PBS before permeabilizing in block solution (PBS+0.1% Triton X-100+5% donkey serum; PBST).” for “use.”\nTo further explore the specificity of inhibition of FGF receptors, PP cells were treated with five additional FGF receptor inhibitors (AZD4547, erdafitinib, roblitinib, pemigatinib, or BGJ398) along with RA (FIG. 7). […] To find an effective concentration of these compounds, differentiated PP cells were transferred to six-well plates and treated with either control having only RA or each FGF receptor inhibitors along with RA for 5 days and quantified the percentage of somatostatin expressing cells."}, "pre-delta cells [3]": {"test_system": "pre-delta cells", "experiment": "Differentiation of pre-delta cells to SCδ cells (stage 6), flow cytometry and immunohistochemistry", "format": "cell-based, human", "protocol": "as §1, §2\nThe differentiated cell clusters or human islets were fixed in 4% PFA and stored at 4° C. until further use. The clusters were washed three times with PBS, set in Histogel (Thermo), embedded in paraffin, and sectioned at 4 μm for histological analysis. Antigen retrieval was performed in citrate buffer (pH 6.5) for 1 hour in boiling water bath on deparaffinized and rehydrated sections, and then allowed to cool for 40 minutes. Sections were then permeabilized and blocked in block solution (PBS+0.1% Triton X-100+5% donkey serum; PBST) for 40 minutes. Primary antibodies were added at appropriate dilutions and incubated overnight at 4° C. On the following day, secondary antibodies were added for 1 hour at room temperature. After thorough rinse with PBST, sections were mounted in Vectashield (Vector Laboratories), covered with coverslips, and sealed with nail polish. The sections were visualized using Zeiss microscope. The secondary antibodies are either donkey-anti-goat-Alexa Fluor 488 (Invitrogen, A-11055, 1:1000), donkey-anti-rabbit-Alexa Fluor 488 (Invitrogen, A-21206, 1:1000), donkey-anti-rat-Alexa Fluor 594 (Invitrogen, A-21209, 1:1000), or donkey-anti-mouse-Alexa Fluor 647 (Invitrogen, A-31571 1:1000)."}, "pre-delta cells [4]": {"test_system": "pre-delta cells", "experiment": "High-content small molecule screen and dose response on pre-delta cells (step 6)", "conditions": "for cell loss at higher concentration: dose response, step 6", "procedure": "Clusters were collected from either Stage 3, or Stage 4, or Stage 5 completed flasks, washed three times with PBS, dispersed into single cells using TrypLE Express for 10 minutes, and quenched using S3 media. […] Chemical compounds were then introduced to each well and incubated at 37° C. in a humidified atmosphere. The fresh media and compounds were added every other day by replacing the spent media. After 5 days for Stage 3 completed cells, 4 days for Stage 4 completed cells, and 7 days for Stage 5 completed cells of incubation, the cells were fixed with 4% PFA and stained for insulin, glucagon, and somatostatin as described herein. Stained cells were imaged with the Cellomics Scan Version 6.6.0 (Thermo Scientific HCS Studio). Twenty-five view fields were captured for each well and analyzed. The percentage of cells expressing only somatostatin was calculated for each well.\nThus, to further increase the percentage of monohormonal SC-δ cells, a small molecule screen on pre-delta cells was conducted, as described earlier with a similar set of criteria (FIG. 2D)."}}}
{"smiles": "Cc1cccc(-c2[nH]ncc2-c2ccc3ncccc3n2)n1", "note": "[Alk5 inhibitor II, 2-[5-(6-methylpyridin-2-yl)-1H-pyrazol-4-yl]-1,5-naphthyridine]", "values": [{"measurement": "monohormonal SC-delta cells on omission of the compound from stage 5", "setting": "delta progenitor cells [1]; Indolactam V and γ-secretase inhibitor XX without Alk5inh II, FIG. 24C", "result": "significant reduction in monohormonal SC-delta cells"}, {"measurement": "resulting cells express somatostatin", "setting": "delta progenitor cells [1]; delta progenitor cells treated with Alk5i II, FIG. 1D", "result": "approximately 8%"}, {"measurement": "SC-α cells population", "setting": "delta progenitor cells [1]; stage 5, flow cytometry", "result": "14.78±1.72", "unit": "%"}, {"measurement": "SC-β cells population", "setting": "delta progenitor cells [1]; stage 5, flow cytometry", "result": "5.20±0.72", "unit": "%"}, {"measurement": "SST^+GCG^+INS^+ cells", "setting": "delta progenitor cells [1]; stage 5, flow cytometry", "result": "15.46±15.07", "unit": "%"}, {"measurement": "SST^−GCG^−INS^− cells", "setting": "delta progenitor cells [1]; stage 5, flow cytometry", "result": "20.97±7.59", "unit": "%"}, {"measurement": "polyhormonal cells", "setting": "delta progenitor cells [1]; stage 5, flow cytometry", "result": "54.88±6.74", "unit": "%"}, {"measurement": "pre-delta cells (somatostatin positive, insulin and glucagon negative)", "setting": "delta progenitor cells [1]; stage 5, flow cytometry", "result": "4.11±1.12", "unit": "%"}]}
{"smiles": "c1ccc2c(-c3cnn4cc(-c5ccc(N6CCNCC6)cc5)cnc34)ccnc2c1", "note": "[LDN193189, 4-[6-(4-piperazin-1-ylphenyl)pyrazolo[1,5-a]pyrimidin-3-yl]quinolin]", "values": [{"measurement": "screen outcome, step 5 (increase of pre-delta cells, fewer polyhormonal cells)", "setting": "delta progenitor cells [2]", "result": "primary hits"}]}
{"smiles": "CCN(CC)CCCCNc1ncc2cc(-c3cc(OC)cc(OC)c3)c(NC(=O)NC(C)(C)C)nc2n1", "note": "[PD173074, 1-tert-butyl-3-[2-[4-(diethylamino)butylamino]-6-(3,5-dimethoxyphenyl)pyrido[2,3-d]pyrimidin-7-yl]urea]", "values": [{"measurement": "somatostatin expression in PP cells", "setting": "PDX1^+/NKX6.1^− PP cells", "result": "induced a small population of somatostatin expression"}]}
{"smiles": "CC1=C(/C=C/C(C)=C/C=C/C(C)=C/C(=O)O)C(C)(C)CCC1", "note": "[RA, retinoic acid]", "values": [{"measurement": "somatostatin expressing cells", "setting": "PP cells", "result": "2.53±0.15", "unit": "%"}]}
{"smiles": "C=C[C@@]1(C)CC(=O)[C@]2(O)[C@@]3(C)[C@@H](O)CCC(C)(C)[C@@H]3[C@H](O)[C@H](OC(C)=O)[C@@]2(C)O1", "note": "[forskolin, [(3R,4aR,5S,6S,6aS,10S,10aR,10bS)-3-ethenyl-6,10,10b-trihydroxy-3,4a,7,7,10a-pentamethyl-1-oxo-5,6,6a,8,9,10-hexahydro-2H-benzo[f]chromen-5-yl]acetate]", "values": [{"measurement": "SCδ cells", "setting": "pre-delta cells [3]; 200 μM for 7 days, stage 6, flow cytometry", "result": "17.51±0.88", "unit": "%"}, {"measurement": "percentage of SC-δ cells after long-term culture", "setting": "pre-delta cells [3]; forskolin withdrawn from S3 media, cultured for additional two weeks", "result": "31.15±1.30", "unit": "%"}, {"measurement": "SC-α cells", "setting": "pre-delta cells [3]; stage 6, flow cytometry", "result": "0.79±0.14", "unit": "%"}, {"measurement": "SST^+GCG^+INS^+ cells", "setting": "pre-delta cells [3]; stage 6, flow cytometry", "result": "11.02±0.60", "unit": "%"}, {"measurement": "SST^−GCG^+INS^+ cells", "setting": "pre-delta cells [3]; stage 6, flow cytometry", "result": "2.36±0.36", "unit": "%"}, {"measurement": "cell loss at higher concentration", "setting": "pre-delta cells [4]", "result": "severe cell loss"}]}
{"smiles": "CC(C)[C@H]1C(=O)N[C@H](CO)Cc2c[nH]c3cccc(c23)N1C", "note": "[indolactam V, (10S,13S)-13-(hydroxymethyl)-9-methyl-10-propan-2-yl-3,9,12-triazatricyclo[6.6.1.0^4,15]pentadeca-1,4(15),5,7-tetraen-11-one]", "values": [{"measurement": "screen outcome, step 5 (increase of pre-delta cells, fewer polyhormonal cells)", "setting": "delta progenitor cells [2]", "result": "primary hits"}, {"measurement": "dose response, monohormonal SCδ cells", "setting": "pre-delta cells [4]; FIG. 2F, FIG. 24B", "result": "dose dependent increase in monohormonal SCδ cells"}, {"measurement": "cell loss at higher concentration", "setting": "pre-delta cells [4]", "result": "severe cell loss"}, {"measurement": "screen outcome, step 6 (increase of monohormonal SC-δ cells)", "setting": "pre-delta cells [4]; library screened at 20 μM, 2 μM and 0.2 μM", "result": "primary hits"}]}
{"smiles": "C[C@H](NC(=O)Cc1cc(F)cc(F)c1)C(=O)N[C@@H]1C(=O)N(C)c2ccccc2-c2ccccc21", "note": "[γ-secretase inhibitor XX, N-[(1S)-2-[[(7S)-6,7-dihydro-5-methyl-6-oxo-5H-dibenz[b,d]azepin-7-yl]amino]-1-methyl-2-oxoethyl]-3,5-difluoro-benzeneacetamide]", "values": [{"measurement": "screen outcome, step 5 (increase of pre-delta cells, fewer polyhormonal cells)", "setting": "delta progenitor cells [2]", "result": "primary hits"}]}
